In patent US20250270208A1, “BICYCLIC HETEROCYCLES AS MRGPRX2 ANTAGONISTS” (Incyte Corporation, priority 2023, published 2025):

Key:
Assay type in all cases: cell-based
[1] = target: T1, MRGPRX2 (Homo sapiens, UniProt Q96LB1); assay: MRGPRX2 IP1 HTRF assay; set-up: host or cells: CHO-K1; details: CHO-K1 cells stably expressing human MRGPRX2; IP1 accumulation; agonist Cortistatin 14 1 μM
T1 sequence (Q96LB1 1-330): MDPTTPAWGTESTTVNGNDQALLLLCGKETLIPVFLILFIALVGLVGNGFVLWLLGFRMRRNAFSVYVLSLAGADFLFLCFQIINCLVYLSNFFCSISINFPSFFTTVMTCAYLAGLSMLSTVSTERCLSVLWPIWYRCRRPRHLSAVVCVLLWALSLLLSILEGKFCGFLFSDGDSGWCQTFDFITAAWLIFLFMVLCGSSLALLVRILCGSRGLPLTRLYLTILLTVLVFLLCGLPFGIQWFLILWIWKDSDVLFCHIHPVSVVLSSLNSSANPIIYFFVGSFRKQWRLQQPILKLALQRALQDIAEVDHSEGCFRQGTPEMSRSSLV
Experimental: This assay measures compound inhibition of myo-Inositol 1 phosphate (IP1) accumulation in CHO-K1 cells. Chinese hamster ovary (CHO-K1) cells stably expressing human MRGPRX2 were purchased from GenScript (Piscataway, NJ).
For the HTRF IP1 determination, an IP-One GqKit (Perkin Elmer Cisbio, Waltham, MA), which includes all reagents and buffers in this protocol, was used. The cells were maintained in culture medium (Ham's F-12K) containing 10% (v/v) FBS, and 200 μg/mL Zeocin. For the assay, the cells were harvested and resuspended in culture medium with 2% FBS and without Zeocin, then were passed through a 40 μm filter. Cells were added at 20000 cells in a 5 μL/well to a 384-well white small volume cell culture plate (Greiner VWR, Radnor, PA) which contained 50 nL/well of test compound serially diluted at a selected concentration range in DMSO. 5 μL/well of prepared 2× Stimulation Buffer 2 was then added to plates and was incubated at 37° C. with 5% CO2 for 1 h. 5 μL/well of agonist Cortistatin 14 (Bio-TechneR&D Systems, Minneapolis, MN) in 1× Stimulation Buffer 2, for a 1 μM final concentration, was then added to plates and incubated at 37° C. with 5% CO2 for 1 h. 6 μL/well of 1:20 diluted Detection Reagent Mix (d2 and Cryptate) was added to the plates and incubated for 1 h in the dark. Plates were read on the PHERAstar microplate reader (BMG Labtech Cary, NC) to determine the HTRF ratio of the acceptor and donor emission signals. The IP1 concentrations were calculated from a standard curve following the IP-One GQ kit instructions. Wells with DMSO only and wells with high concentration of reference antagonist were used as controls for normalization. Compound IC50 curves were globally fitted with 3- or 4-parameter Hill equation in a Genedata Screener (Genedata Basel, Switzerland).

[2] = target: T1, MRGPRX2; assay: MRGPRX2 FLIPR calcium mobilization assay; set-up: host or cells: CHO-K1; details: CHO-K1 cells stably expressing human MRGPRX2; Ca2+ release; agonist Cortistatin-14 at EC80
Experimental: Chinese hamster ovary (CHO-K1) cells stably expressing human MRGPRX2 were purchased from Genescript (Piscataway, NJ). The cells were maintained in culture medium (Ham's F-12K) containing 10% (v/v) FBS, 200 μg/mL Zeocin, 100 units/mL penicillin G and 100 μg/mL streptomycin (Life Technologies, Carlsbad, CA). For the assay, the cells were harvested and resuspended with culture medium without Zeocin before plating at 8000 cells per well in 20 μL in 384-well black clear bottom cell culture plates (VWR, Radnor, PA). After 24 hour culture at 37° C. and 5% CO2, the cells were loaded with 20 μL/well of calcium dye (FLIPR Calcium 6 Assay Kit, Molecular Devices, San Jose, CA) diluted in loading buffer (1× Hank's Balanced Salt Solution (HBSS), 5 mM probenecid, 20 mM 4-(2-hydroxyethyl)-1-piperazineethanesulfonic acid (HEPES), pH 7.4, VWR, Radnor, PA) followed with 45 min incubation at 37° C. and 40 min. at r.t. in the dark. Cells were then treated with the addition of 10 uL/well test compounds with a range of increasing concentrations diluted in the assay buffer (1×HBSS, 20 mM HEPES, pH 7.4, VWR, Radnor, PA) with FLIPR Penta (Molecular Devices. San Jose, CA) and incubated for 30 min. at r.t. Ca^2+ release was measured with FLIPR Penta with 10 s basal fluorescence measurement, then 12.5 μL of 5× agonist Cortistatin-14 (Tocris, Minneapolis, MN) at final concentration corresponding to the EC80 were added followed with continued fluorescence signal monitoring for an additional 110 s. The base line adjusted (median of first 10 s base line) max value of the Relative Fluorescence Unit (RFU) was plotted against compound concentrations. Wells with no compound were served as the positive controls, and wells with high concentration of reference antagonist were used as negative controls. IC50 curves were globally fitted with 3- or 4-parameter Hill equation in a Genedata Screener (Genedata Basel, Switzerland).

[3] = target: T1, MRGPRX2; assay: MRGPRX2 β-Arrestin assay; set-up: host or cells: PathHunter CHO-K1; details: PathHunter CHO-K1 MRGPRX2 β-Arrestin cell line; agonist Cortistatin 14 0.25 μM
From the text: This assay measures compound inhibition of β-Arrestin recruitment, which is part of the G protein-independent pathway that results from the ligand-activated GPCR phosphorylation by specific GPCR kinases. The PathHunter CHO-K1 MRPGRX2 β-Arrestin Cell line stably expressing ProLink tagged MRGPRX2 and Enzyme Acceptor Tagged β-Arrestin was purchased from Eurofins DiscoverX, (Fremont, CA).
The cells were maintained in culture medium from the Europhins DiscoverX Cell Culture Kit-107 which includes FBS, hygromycin B and G418. For the assay, the cells were harvested and were resuspended with Cell Plating Reagent 2 (Eurofins DiscoverX). Cells were added 10000 cells in 25 μL/well to a 384-well black cell culture plate (Greiner VWR, Radnor, PA) which contained 125 nL/well of compound at a selected serially diluted concentration range or DMSO. The plate was incubated at 37° C. with 5% CO2 for 1 h. 2 μL/well of agonist Cortistatin 14 was diluted in Protein Dilution Buffer, (Eurofins DiscoverX) for a final concentration of 0.25 μM, was added and the plate was incubated at 37° C. with 5% CO2 for 90 min. 14 μL/well of Detection Reagent Mix (PathHunter Detection Kit, Eurofins DiscoverX) was added to the plates and further incubated for 1 h in the dark. Plates were read on the PHERAstar microplate reader (BMG Labtech Cary, NC) measuring luminescence 0.1 to 1 s per well. Data was normalized using DMSO only wells and wells with high concentration of reference antagonist as controls. Compound IC50 curves were globally fitted with 3- or 4-parameter Hill equation in a Genedata Screener (Genedata Basel, Switzerland).

SMILES	IC50 [1] [nM]	IC50 [2] [nM]	IC50 [3] [nM]
FC(F)(F)c1cc(N[C@H]2CC[C@@H](Nc3nccc4ncccc34)CC2)c2cc(Cl)ccc2n1 [Example 13, (1s,4s)-N^1-(6-Chloro-2-(trifluoromethyl)quinolin-4-yl)-N^4-(1,6-naphthyridin-5-yl)cyclohexane-1,4-diamine]	0.1 to 100	0.1 to 100	0.1 to 100
Cn1ncc2c(N[C@@H]3CCC[C@H](Nc4cc(C(F)(F)F)nc5ccc(Cl)cc45)C3)nccc21 [Example 19, (1S,3R)-N^1-(6-Chloro-2-(trifluoromethyl)quinolin-4-yl)-N^3-(1-methyl-1H-pyrazolo[4,3-c]pyridin-4-yl)cyclohexane-1,3-diamine]	0.1 to 100	0.1 to 100	0.1 to 100
Cn1cnc2ccnc(N[C@@H]3CCC[C@H](Nc4cc(C(F)(F)F)nc5ccc(Cl)cc45)C3)c21 [Example 4, (1S,3R)-N^1-(6-Chloro-2-(trifluoromethyl)quinolin-4-yl)-N^3-(3-methyl-3H-imidazo[4,5-c]pyridin-4-yl)cyclohexane-1,3-diamine]	0.1 to 100	0.1 to 100	0.1 to 100
Cn1c(N[C@@H]2CCC[C@H](Nc3cc(C(F)(F)F)nc4ccc(Cl)cc34)C2)nc2cnccc21 [Example 32, (1S,3R)-N^1-(6-Chloro-2-(trifluoromethyl)quinolin-4-yl)-N^3-(1-methyl-1H-imidazo[4,5-c]pyridin-2-yl)cyclohexane-1,3-diamine]	0.1 to 100	0.1 to 100	–
FC(F)(F)c1cc(N[C@H]2CCC[C@@H](Nc3nccc4nccn34)C2)c2cc(Cl)ccc2n1 [Example 18, (1S,3R)-N^1-(6-Chloro-2-(trifluoromethyl)quinolin-4-yl)-N^3-(imidazo[1,2-c]pyrimidin-5-yl)cyclohexane-1,3-diamine]	0.1 to 100	–	0.1 to 100
Cn1cnc2ncnc(N[C@@H]3CCC[C@H](Nc4cc(C(F)(F)F)nc5ccc(Cl)cc45)C3)c21 [Example 8, (1S,3R)-N^1-(6-Chloro-2-(trifluoromethyl)quinolin-4-yl)-N^3-(7-methyl-7H-purin-6-yl)cyclohexane-1,3-diamine]	0.1 to 100	0.1 to 100	–
FC(F)(F)c1cc(N[C@H]2CCC[C@@H](Nc3ccnc4ncccc34)C2)c2cc(Cl)ccc2n1 [Example 27, (1S,3R)-N^1-(6-Chloro-2-(trifluoromethyl)quinolin-4-yl)-N^3-(1,8-naphthyridin-4-yl)cyclohexane-1,3-diamine]	100 to 1000	0.1 to 100	–
FC(F)(F)c1cc(N[C@H]2CCC[C@@H](Nc3nccn4cncc34)C2)c2cc(Br)ccc2n1 [Example 29, (1S,3R)-N^1-(6-bromo-2-(trifluoromethyl)quinolin-4-yl)-N^3-(imidazo[1,5-a]pyrazin-8-yl)cyclohexane-1,3-diamine]	0.1 to 100	0.1 to 100	–
Fc1ccc2nc(C(F)(F)F)cc(N[C@H]3CCC[C@@H](Nc4nccn5cncc45)C3)c2c1 [Example 28, (1S,3R)-N^1-(6-fluoro-2-(trifluoromethyl)quinolin-4-yl)-N^3-(imidazo[1,5-a]pyrazin-8-yl)cyclohexane-1,3-diamine]	0.1 to 100	0.1 to 100	–
FC(F)(F)c1cc(N[C@H]2CCC[C@@H](Nc3ccccn3)C2)c2cc(Cl)ccc2n1 [Example 12, (1S,3R)-N^1-(6-Chloro-2-(trifluoromethyl)quinolin-4-yl)-N^3-(pyridin-2-yl)cyclohexane-1,3-diamine]	100 to 1000	0.1 to 100	–
FC(F)(F)c1cc(N[C@H]2CCC[C@@H](Nc3nccn4nccc34)C2)c2cc(Cl)ccc2n1 [Example 30, (1S,3R)-N^1-(6-Chloro-2-(trifluoromethyl)quinolin-4-yl)-N^3-(pyrazolo[1,5-a]pyrazin-4-yl)cyclohexane-1,3-diamine]	0.1 to 100	0.1 to 100	–
Cn1cnc2ccnc(N[C@H]3CC[C@@H](Nc4cc(C(F)(F)F)nc5ccc(Cl)cc45)CC3)c21 [Example 7, (1s,4s)-N^1-(6-Chloro-2-(trifluoromethyl)quinolin-4-yl)-N^4-(3-methyl-3H-imidazo[4,5-c]pyridin-4-yl)cyclohexane-1,4-diamine]	0.1 to 100	0.1 to 100	–
FC(F)(F)c1cc(N[C@H]2CCC[C@@H](Nc3nnc4n3CCC4)C2)c2cc(Cl)ccc2n1 [Example 34, (1S,3R)-N^1-(6-Chloro-2-(trifluoromethyl)quinolin-4-yl)-N^3-(6,7-dihydro-5H-pyrrolo[2,1-c][1,2,4]triazol-3-yl)cyclohexane-1,3-diamine]	100 to 1000	0.1 to 100	–
Cn1ncc2c(N[C@@H]3CCC[C@H](Nc4cc(C(F)(F)F)nc5ccc(Cl)cc45)C3)ncnc21 [Example 31]	0.1 to 100	0.1 to 100	–
FC(F)(F)c1cc(N[C@H]2CCC[C@@H](Nc3nccc4cnccc34)C2)c2cc(Cl)ccc2n1 [Example 6, (1S,3R)-N^1-(6-Chloro-2-(trifluoromethyl)quinolin-4-yl)-N^3-(2,6-naphthyridin-1-yl)cyclohexane-1,3-diamine]	100 to 1000	0.1 to 100	–
Cn1ncc2ccnc(N[C@@H]3CCC[C@H](Nc4cc(C(F)(F)F)nc5ccc(Cl)cc45)C3)c21 [Example 2, (1S,3R)-N^1-(6-Chloro-2-(trifluoromethyl)quinolin-4-yl)-N^3-(1-methyl-1H-pyrazolo[3,4-c]pyridin-7-yl)cyclohexane-1,3-diamine]	100 to 1000	0.1 to 100	–
FC(F)(F)c1cc(N[C@H]2CCC[C@@H](Nc3cc(N4CCOCC4)ccn3)C2)c2cc(Cl)ccc2n1 [Example 3, (1S,3R)-N^1-(6-Chloro-2-(trifluoromethyl)quinolin-4-yl)-N^3-(4-morpholinopyridin-2-yl)cyclohexane-1,3-diamine]	100 to 1000	100 to 1000	–
